These results are taken from article PMC7002685, “Inhibition of vascular calcification by inositol phosphates derivatized with ethylene glycol oligomers” (Nature Communications, 2020).

Values joined by “and” are separate entries in the source; they are usually repeats but may differ in a detail not shown here. Equal values may be shown once. Read-outs that look alike come from different tables or passages of the source.

For data set [1], the system named is CPPs. Briefly: TEM and selected area electron diffraction of CPPs. Further details: species or system human. As to the method: To confirm the screening assay data, the hydrodynamic diameter of the CPPs was measured by dynamic light scattering (DLS). […] The CPP2 size deduced by DLS is slightly larger than the size derived from transmission electron microscopy (TEM) (Supplementary Figs. 4c and 7a), the latter being in line with previous work[52].
CPPs were prepared (vide supra) and TEM was performed similar to previous reports. […] […] Herein, cell culture grade 50 mM HEPES (1 M HEPES, 5630056, Thermo Fischer Scientific) was used for washing steps, to avoid high solvent and particle background in TEM. In brief, CPPs at 0.5 mg calcium/mL were drop-casted onto a copper grid, 300 mesh, covered with a continuous 8-nm-thick carbon film. The TEM data were collected with an FEI Tecnai F30 FEG TEM operated at 300 kV acceleration voltage and equipped with a Gatan 749 MultiScan CCD camera (Thermo Fischer Scientific). The bright-field images were collected at ×39,000 magnification using a 10-μm objective aperture. To assess the crystallinity of the sample selected area diffraction patterns were collected in parallel at a camera length of 300 mm. The radii of the rings in the diffraction pattern were measured (1/nm) and the associated interplanar d-spacings (nm) were calculated.

Data set [2] can be described thus: VSMC viability (MTS) in high-CaP medium. The class given is cell-based, human. As to conditions: human, read-out: VSMC viability (MTS), % of medium control; for viability at 5 days, 10 µM: 10 µM in high-CaP medium; for viability at 5 days, 100 µM: 100 µM in high-CaP medium.
Data set [3] concerns primary human VSMCs. Briefly: VSMC viability (MTS) in high-CaP medium. The class given is cell-based.
A short description of data set [4]: PK in healthy rats, i.v. bolus. The class given is in vivo, male Sprague-Dawley rats. As to conditions: for Clobs / plasma concentration / Cmax / AUC(0-t) / MRT: 10 mg/kg i.v.; for half-life / Cmax / Vd / AUC(0-t) / MRT: Sprague-Dawley, rat, iv; for half-life: healthy male rats; for Cmax / Vd / AUC(0-t) / MRT: male; for Vd: read-out: apparent volume of distribution; for MRT: read-out: mean residence time (MRT) (converted). As to the method:
All PK studies in healthy animals were performed by the contract research organization Aphad S.r.l. (Milan, Italy). In all studies, compounds were administered as a salt, and the doses and plasma quantitation refer to the acid form. PK parameters listed in Supplementary Table 13 were derived from measured plasma concentrations applying noncompartmental analysis. Concentration data were extrapolated using the software Analyst™ 6.1 (Applied Biosystems, Foster City, CA, USA), the area under the plasma concentration vs. time curve (AUC) was calculated by linear trapezoidal rule using PK solver 2.0 add-in for Microsoft Excel 2007 (available for download in[83]), and a uniform weight was performed as a first general approach.
To study PK in healthy animals, male Sprague-Dawley rats (Harlan, Correzzana, Italy) were housed up to three per cage with free access to water and standard chow (pellets 12 mm, global diet 2018 certificate, Mucedola, Srl, Settimo Milanese, Italy), and submitted to a 12-h light/dark cycle. Animals were administered i.v. 10 mg/kg of (OEG2)2-IP4 in saline solution i.v. (30 s bolus, 5 mL/kg) and s.c. (5 mL/kg), respectively, in three animals per route and treatment. […] Plasma calcium concentration was determined in pre-dose samples and in t = 30 min samples of both acute and chronic treatments using the calcium colorimetric assay. Blood samples of 100 µL were drawn at several time points from the caudal vein, centrifuged at (3000 × g, 4 °C, 10 min) and stored at −80 °C until analysis by liquid chromatography–tandem mass spectrometry (LC-MS/MS).
The column used for (OEG2)2-IP4 was Kinetex C8 50 × 2.1 mm, 2.6 μm 100 A (Phenomenex, Basel, Switzerland), thermostated at 35 °C. […] Quantitation was carried out as total ion current on the sum of the MRM transitions. […] Samples were agitated 5 min on a […] orbital shaker and centrifuged (16,000 × g, 5 °C, 20 min). […] Samples were then subjected to LC-MS/MS. Rat PK samples were prepared for analysis in an analogous manner as done for spiked samples. The lower limit of quantification (LLOQ) and detection (LOD) in rat plasma for (OEG2)2-IP4 were 25 and 10 ng/mL, respectively. The upper limit of quantification (ULOQ) and detection was 5000 ng/mL.

The nature of data set [5]: Inhibition of calcium phosphate precipitation in serum-free buffer. As to conditions: for inhibition of calcium phosphate precipitation, serum-free: 10 mM calcium, 6 mM phosphate, HBS pH 7.4, 90 min, 37 °C. It is filed as physicochemical. From the text:
calcification in organs other than these are available from the present study.
We have included the latest research on CPPs and the respective literature now in the introduction (p. 4, line 74 ff.).
The way I see it the compound stabilizes CPP1, which can be more easily cleared unless it occurs in very high amounts and cannot be cleared at all. Therefore it is important to measure renal mineral clearance ± compound (see comment for Fig 3)
We have amended the discussion in the revised manuscript with respect to the hypothesis on the mechanism of action of (OEG2)2-IP4 postulated by the reviewer. (p. 32, line 614 ff.). We have further addressed the mechanism of action in response to Reviewer #4 Comment 3.
Did they test if (OEG2)2-IP4 compound alone stabilized supersaturated Ca and Pi solutions by forming colloids akin to CPP? […]
and phosphate and formation of hydroxyapatite with the assay from Heiss, A. et al.5. In brief, compound, 10 mM calcium solution and 6 mM phosphate solution in Hepes buffered saline (pH 7.4, RT) were incubated for 90 min at 37 °C and centrifuged at 8 000 x g for 5 min. The recovered pellet was dissolved in 1% (v/v) acetic acid and the calcium content quantified […]. (OEG2)2-IP4 alone stabilized supersaturated calcium and phosphate in […]
CPP1s (Rh < 100 nm) were detected by dynamic light scattering. […]
synergistic effect of (OEG2)2-IP4 with endogenous calcification inhibitors, such as fetuin-A in […]
that are not physiological (no serum), we prefer not to include these additional data in the […]

The mark [6] stands for this setting: 0.01 µM in high-CaP medium, replicates Fig. 3d.

Turning to `O=P(O)(O)O[C@H]1[C@H](OP(=O)(O)O)[C@@H](OP(=O)(O)O)[C@H](OP(=O)(O)O)[C@@H](OP(=O)(O)O)[C@H]1OP(=O)(O)O` [IP6, myo-Inositol hexakisphosphate], in data set [1] (100 µM, 14 h, 37 °C), the “CPP morphology (TEM)” value is on record as “spindle-shaped CPP2s”. Also, the viability at 5 days, 1 µM in data set [2] (primary human VSMCs, 1 µM in high-CaP medium) turned out to be 68.8%. In addition, the viability at 5 days, 10 µM in data set [2] (primary human VSMCs) came to 69.9%. Also, the viability at 5 days, 100 µM in data set [2] (primary human VSMCs) stood at 78.7%. Moreover, the “VSMC viability (MTS), % of medium control” value in data set [3] (setting [6]) was 67.31% and 30.78% and 56.19%; in data set [3] (0.1 µM in high-CaP medium), 69.48% and 36.65% and 58.54%; in data set [3] (1 µM in high-CaP medium), 54.02% and 63.76%; in data set [3] (10 µM in high-CaP medium), 84.96% and 80.54%; in data set [3] (100 µM in high-CaP medium), 97.34% and 86.99%. For the same compound, the Clobs in data set [4] worked out at 68.5 ± 21.2 mL/min/kg. In data set [4] (5 min, individual rats Fig. 4a, unit not printed (µM per Fig. 4b)), the plasma concentration is 13.9 and 17.5 and 6.9 and 6.5 and 5.5 and 5.1. Further, in data set [4] (plasma, 10 mg/kg i.v. bolus), the half-life was found to be 8 ± 2 min. In addition, the concentration in data set [4] (plasma) peaked (Cmax) at 13 ± 6 µM. In addition, the Vd in data set [4] (plasma, 10 mg/kg i.v. bolus) was 0.958 ± 0.405 L/kg. This compound also gave an AUC(0-t) in data set [4] (plasma, t = 30 min) of 3.77 µM·h. Also, in data set [4] (plasma), the MRT was 14 min. Moreover, in data set [5], the “inhibition of calcium phosphate precipitation, serum-free” value was “barely effective”.
As for `COCCOCCO[C@@H]1[C@@H](OP(=O)(O)O)[C@H](OCCOCCOC)[C@@H](OP(=O)(O)O)[C@@H](OP(=O)(O)O)[C@H]1OP(=O)(O)O` [(OEG2)2-IP4, 4,6-Di-O-(methoxy-diethyleneglycol)-myo-inositol-1,2,3,5-tetrakis(phosphate)], the “CPP morphology (TEM)” value in data set [1] (10 µM) is “matched those of CPP2s”; in data set [1] (100 µM, 14 h, 37 °C), “spherical-shaped CPP1s”. Also, in data set [1] (100 µM, 14 h, 37 °C), the “CPP crystallinity (selected area electron diffraction)” value is reported as “largely amorphous”. In addition, the viability at 5 days, 0.01 µM in data set [2] (setting [6]) turned out to be 65.9%. For the same compound, the viability at 5 days, 0.1 µM in data set [2] (0.1 µM in high-CaP medium) worked out at 72.3%. Also, the viability at 5 days, 10 µM in data set [2] is 71.1%. Moreover, in data set [2], the viability at 5 days, 100 µM is 83.5%. Moreover, the “VSMC viability (MTS), % of medium control” value was 53.4% and 66.46% in data set [3] (setting [6]); 53.2% and 65.81% in data set [3] (0.1 µM in high-CaP medium); 67.8% and 94.42% and 93.48% in data set [3] (1 µM in high-CaP medium); 90.2% and 89.04% in data set [3] (10 µM in high-CaP medium); 91.5% and 93.79% in data set [3] (100 µM in high-CaP medium). Also, the “cell viability vs high-CaP medium control” value in data set [3] (0.01 and 0.1 µM) was “slightly decreased”. Moreover, in data set [4], the Clobs worked out at 7.6 ± 0.5 mL/min/kg. Moreover, the “fold increase in plasmatic t1/2 vs IP6” value in data set [4] (10 mg/kg i.v. bolus) is recorded as ~10 fold. The plasma concentration in data set [4] (5 min, individual rats Fig. 4a, unit not printed (µM per Fig. 4b), listed as INS-3001) is 41.12 and 47.02 and 66.21; in data set [4] (15 min, unit not given, listed as INS-3001) it was 26.41 and 24.63 and 34.38; in data set [4] (30 min, unit not given, listed as INS-3001) it was 14.11 and 13.26 and 19.44; in data set [4] (60 min, unit not given, listed as INS-3001), 5.04 and 6 and 6.96; in data set [4] (90 min, unit not given, listed as INS-3001) it was 2.07 and 1.64 and 1.72; in data set [4] (240 min, unit not given, listed as INS-3001), 0.15 and 0.13. Also, the plasma concentration in data set [4] (360 min, unit not given, listed as INS-3001) is 0.06 and 0.04 and 0.08. The compound further had a half-life in data set [4] (in vivo, 10 mg/kg i.v. bolus) of 78 ± 32 min. The compound also yielded a Cmax in data set [4] (in vivo) of 52 ± 13 µM. In addition, in data set [4] (in vivo, 10 mg/kg i.v. bolus), the Vd is 0.234 ± 0.032 L/kg. In data set [4] (in vivo, t = 360 min), this compound had an AUC(0-t) of 26.1 µM·h. For the same compound, the MRT in data set [4] (in vivo) was 30 min. Moreover, in data set [5] (1 mM), the “precipitate formation, serum-free” value is listed as “no precipitate formed”. Further, the “inhibition of calcium phosphate precipitation, serum-free” value in data set [5] is “stabilized supersaturated calcium and phosphate in solution dose dependently”.

What is called viability is a per cent measure of how many cells are alive, often set against a control. The half-life is the time in which the quantity being followed falls by half. A lower half-life goes with fast loss. In general, Cmax refers to the maximum level reached in the sampled fluid or tissue. The AUC(0-t) is the area under the concentration-time curve up to a stated or last time point. Lower therefore signals less exposure. Usually MRT stands for a mean duration of stay, worked out from the concentration-time curve.
